Tests used:
U251 = test: NCI drug screen, U251; type: cell-based, human; settings: U251 (CNS Cancer); 1.00E−5 Molar
Procedure: (§1) In brief, cellular protein levels were determined after 48 hours of drug exposure by sulforhodamine B colorimetry. Through the use of a time 0 cell control, the cell growth can be determined for each cell line thus allowing calculations of the 50% growth inhibitory concentration (GI50), the total growth inhibition (TGI), and the 50% lethal concentration (LC50). Comparison to plates not exposed to drug permits determination of concentration and times of exposure conferring 50% net growth inhibition (GI50), TGI, and 50% cell kill (LC50).
(§2) The screening system in United State National Cancer Institute (NCI) is consisted of 60 kinds of different human cancer cells, which can be used to assay the growth-inhibiting ability or cell toxicity of a compound against various cancer and tumor at a certain concentration.

MOLT-4 = test: NCI drug screen, MOLT-4; type: cell-based, human; settings: MOLT-4 (Leukemia); 1.00E−5 Molar
Procedure: as §1, §2

UO-31 = test: NCI drug screen, UO-31; type: cell-based, human; settings: UO-31 (Renal Cancer); 1.00E−5 Molar
Procedure: as §1, §2

MCF7 = test: NCI drug screen, MCF7; type: cell-based, human; settings: MCF7 (Breast Cancer); 1.00E−5 Molar
Procedure: as §1, §2

OVCAR-3 = test: NCI drug screen, OVCAR-3; type: cell-based, human; settings: OVCAR-3 (Ovarian Cancer); 1.00E−5 Molar
Procedure: as §1, §2

[1] = system: 60 kinds of different human cancer cells; test: NCI in vitro 60-cell Drug Screen, whole panel; type: cell-based; settings: 1.00E−5 Molar; for Growth Percent, Mean: mean over tested cell lines; for growth-inhibiting effect against cancer cells, by cancer type: NCI's screen
Procedure: as §1
From the data analysis it follows that approximately 95% of the actives (potent anticancer drugs) from the 60 cell line screen can be identified. By these criteria, five compounds (each with its certification number, refer to FIG. 4) of the invention were reported that having anticancer activity.
as §2

M14 = test: NCI drug screen, M14; type: cell-based, human; settings: M14 (Melanoma); 1.00E−5 Molar
Procedure: as §1, §2

TK-10 = test: NCI drug screen, TK-10; type: cell-based, human; settings: TK-10 (Renal Cancer); 1.00E−5 Molar
Procedure: as §1, §2

OVCAR-8 = test: NCI drug screen, OVCAR-8; type: cell-based, human; settings: OVCAR-8 (Ovarian Cancer); 1.00E−5 Molar
Procedure: as §1, §2

OVCAR-4 = test: NCI drug screen, OVCAR-4; type: cell-based, human; settings: OVCAR-4 (Ovarian Cancer); 1.00E−5 Molar
Procedure: as §1, §2

SK-MEL-5 = test: NCI drug screen, SK-MEL-5; type: cell-based, human; settings: SK-MEL-5 (Melanoma); 1.00E−5 Molar
Procedure: as §1, §2

IGROV1 = test: NCI drug screen, IGROV1; type: cell-based, human; settings: IGROV1 (Ovarian Cancer); 1.00E−5 Molar
Procedure: as §1, §2

DU145 = test: NCI drug screen, DU145; type: cell-based, human; settings: DU145 (Prostate Cancer); 1.00E−5 Molar
Procedure: as §1, §2

HS 578-T = test: NCI drug screen, HS 578-T; type: cell-based, human; settings: HS 578-T (Breast Cancer); 1.00E−5 Molar
Procedure: as §1, §2

SK-MEL-28 = test: NCI drug screen, SK-MEL-28; type: cell-based, human; settings: SK-MEL-28 (Melanoma); 1.00E−5 Molar
Procedure: as §1, §2

SN12C = test: NCI drug screen, SN12C; type: cell-based, human; settings: SN12C (Renal Cancer); 1.00E−5 Molar
Procedure: as §1, §2

HL-60(TB) = test: NCI drug screen, HL-60(TB); type: cell-based, human; settings: HL-60(TB) (Leukemia); 1.00E−5 Molar
Procedure: as §1, §2

SK-MEL-2 = test: NCI drug screen, SK-MEL-2; type: cell-based, human; settings: SK-MEL-2 (Melanoma); 1.00E−5 Molar
Procedure: as §1, §2

CAKI-1 = test: NCI drug screen, CAKI-1; type: cell-based, human; settings: CAKI-1 (Renal Cancer); 1.00E−5 Molar
Procedure: as §1, §2

786-0 = test: NCI drug screen, 786-0; type: cell-based, human; settings: 786-0 (Renal Cancer); 1.00E−5 Molar
Procedure: as §1, §2

SF-268 = test: NCI drug screen, SF-268; type: cell-based, human; settings: SF-268 (CNS Cancer); 1.00E−5 Molar
Procedure: as §1, §2

NCI-H226 = test: NCI drug screen, NCI-H226; type: cell-based, human; settings: NCI-H226 (Non-Small Cell Lung Cancer); 1.00E−5 Molar
Procedure: as §1, §2

LOX IMVI = test: NCI drug screen, LOX IMVI; type: cell-based, human; settings: LOX IMVI (Melanoma); 1.00E−5 Molar
Procedure: as §1, §2

HCT-15 = test: NCI drug screen, HCT-15; type: cell-based, human; settings: HCT-15 (Colon Cancer); 1.00E−5 Molar
Procedure: as §1, §2

SNB-19 = test: NCI drug screen, SNB-19; type: cell-based, human; settings: SNB-19 (CNS Cancer); 1.00E−5 Molar
Procedure: as §1, §2

PC-3 = test: NCI drug screen, PC-3; type: cell-based, human; settings: PC-3 (Prostate Cancer); 1.00E−5 Molar
Procedure: as §1, §2

A549/ATCC = test: NCI drug screen, A549/ATCC; type: cell-based, human; settings: A549/ATCC (Non-Small Cell Lung Cancer); 1.00E−5 Molar
Procedure: as §1, §2

OVCAR-5 = test: NCI drug screen, OVCAR-5; type: cell-based, human; settings: OVCAR-5 (Ovarian Cancer); 1.00E−5 Molar
Procedure: as §1, §2

K562 = test: NCI drug screen, K562; type: cell-based, human; settings: K562 (Leukemia); 1.00E−5 Molar
Procedure: as §1, §2

HCC-2998 = test: NCI drug screen, HCC-2998; type: cell-based, human; settings: HCC-2998 (Colon Cancer); 1.00E−5 Molar
Procedure: as §1, §2

UACC-257 = test: NCI drug screen, UACC-257; type: cell-based, human; settings: UACC-257 (Melanoma); 1.00E−5 Molar
Procedure: as §1, §2

NCI/ADR-RES = test: NCI drug screen, NCI/ADR-RES; type: cell-based, human; settings: for Growth Percent: NCI/ADR-RES (Ovarian Cancer), 1.00E−5 Molar; for drug-resistance against adriamycin (ADR): human multiple drug-resistant cell NCI/ADR-RES
Procedure: as §1, §2

EKVX = test: NCI drug screen, EKVX; type: cell-based, human; settings: EKVX (Non-Small Cell Lung Cancer); 1.00E−5 Molar
Procedure: as §1, §2

Structure (SMILES)	Growth Percent (U251)	Growth Percent (MOLT-4)	Growth Percent (UO-31)	Growth Percent (MCF7)	Growth Percent (OVCAR-3)	Growth Percent, Mean [1]	Growth Percent (M14)	Growth Percent (TK-10)	Growth Percent (OVCAR-4)	Growth Percent (SK-MEL-5)	Growth Percent (IGROV1)	Growth Percent (DU145)	Growth Percent (SK-MEL-28)	Growth Percent (SN12C)	Growth Percent (HL-60(TB))	Growth Percent (SK-MEL-2)	Growth Percent (786-0)	Growth Percent (SF-268)	Growth Percent (NCI-H226)	Growth Percent (LOX IMVI)	other results
Cc1ccc(C(=O)Nc2ccc3c(c2NC(=O)c2ccc(C)cc2)C(=O)c2ccccc2C3=O)cc1 [CC-04, 1,2-bis-(4-methylbenzamido)-anthraquinone]	91.73%	89.63%	66.54%	71.71%	97.90%	96.19%	91.57%	124.91%	104.32%	94.04%	78.71%	95.93%	99.46%	98.59%	73.11%	100.65%	116.17%	98.91%	91.14%	84.41%	Growth Percent (OVCAR-8): 85.43%; Growth Percent (HS 578-T): 105.96%; Growth Percent (CAKI-1): 94.89%; Growth Percent (HCT-15): 102.44%; Growth Percent (SNB-19): 103.91%; Growth Percent (PC-3): 82.91%; Growth Percent (A549/ATCC): 90.46%; Growth Percent (OVCAR-5): 110.18%; Growth Percent (K562): 107.54%; Growth Percent (HCC-2998): 84.68%; Growth Percent (UACC-257): 98.46%
Cc1ccc(C(=O)Nc2c(NC(=O)CCl)ccc3c2C(=O)c2ccccc2C3=O)cc1 [CC-12, 1-(4-methylbenzamido)-2-(chloroacetamido)-anthraquinone]	−44.02%	−23.17%	42.91%	−79.28%	−92.86%	−1.96%	−22.68%	130.52%	34.52%	−98.72%	51.41%	−97.56%	−31.94%	−81.02%	−46.88%	52.00%	11.30%	14.63%	−25.30%	−57.05%	growth-inhibiting effect against cancer cells, by cancer type [1]: exhibited growth-inhibiting effect against cancer cells such as leukemia, non-small cell lung cancer, colon cancer, central nervous system (CNS) cancer, melanoma, ovarian cancer, renal cancer, prostate cancer, breast cancer; Growth Percent (OVCAR-8): 8.72%; Growth Percent (NCI/ADR-RES): 72.17%; drug-resistance against adriamycin (ADR) (NCI/ADR-RES): possessed drug-resistance against adriamycin (ADR); Growth Percent (EKVX): 88.22%; Growth Percent (HCT-15): −50.22%; Growth Percent (SNB-19): 88.40%; Growth Percent (PC-3): 6.81%; Growth Percent (A549/ATCC): −81.71%; Growth Percent (OVCAR-5): 109.55%
O=C(CCl)Nc1ccc2c(c1NC(=O)Cc1ccccc1)C(=O)c1ccccc1C2=O [CC-23, 1-[2-(phenyl)acetylamino]-2-(chloroacetamido)-anthraquinone]	66.17%	11.40%	58.19%	51.00%	86.38%	73.78%	87.10%	120.81%	80.40%	51.32%	41.03%	85.83%	88.68%	79.93%	41.36%	−6.49%	97.26%	80.14%	80.49%	36.29%	growth-inhibiting effect against cancer cells, by cancer type [1]: could inhibit the cancer cell growth of leukemia and melanoma; Growth Percent (NCI/ADR-RES): 86.87%; drug-resistance against adriamycin (ADR) (NCI/ADR-RES): possessed drug-resistance against adriamycin (ADR); Growth Percent (HS 578-T): 66.65%; Growth Percent (EKVX): 102.08%; Growth Percent (HCT-15): 68.55%; Growth Percent (SNB-19): 124.27%; Growth Percent (OVCAR-5): 119.04%; Growth Percent (HCC-2998): 94.74%
Cc1ccc(C(=O)Nc2c(NC(=O)CN3CCCC3)ccc3c2C(=O)c2ccccc2C3=O)cc1 [CC-38, 1-(4-methylbenzamido)-2-[2-(tetrahydro-1H-1-pyrrolyl)acetylamino]-anthra quinone]	82.17%	48.20%	69.24%	70.79%	77.82%	74.53%	88.01%	86.85%	47.06%	61.74%	106.07%	91.52%	92.18%	74.82%	96.11%	102.17%	65.15%	86.17%	90.22%	80.62%	Growth Percent (OVCAR-8): 65.02%; Growth Percent (NCI/ADR-RES): 50.86%; Growth Percent (HS 578-T): 69.39%; Growth Percent (EKVX): 65.93%; Growth Percent (CAKI-1): 55.64%; Growth Percent (HCT-15): 73.22%; Growth Percent (SNB-19): 108.22%; Growth Percent (PC-3): 75.00%; Growth Percent (A549/ATCC): 84.88%; Growth Percent (OVCAR-5): 102.31%; Growth Percent (K562): 40.86%; Growth Percent (HCC-2998): 84.60%; Growth Percent (UACC-257): 92.83%
